These results are taken from patent US20220267260A1, “COMPOUNDS CONTAINING A SULFONIC GROUP AS KAT INHIBITORS” (Epizyme, Inc., priority 2016, published 2022).

In one assay the target is T1, KAT5 (Homo sapiens, UniProt Q92993).
T1 construct: His-TEV tag (N, cleaved yes); made in house
Briefly: KAT5 enzyme inhibition assay (SAMDI mass spectrometry). It counts as biochemical. The following applies: His-TEV-FL KAT5-Flag enzyme construct.

The next assay addresses T2, KAT6A (Homo sapiens, UniProt Q92794).
T2 construct: His-TEV tag (N, cleaved yes); made in house
As to the kind of experiment: KAT6A enzyme inhibition assay (SAMDI mass spectrometry). Format: biochemical. The following applies: His-TEV-KAT6A 501-784 enzyme construct.

T1 sequence (Q92993 with tags, fused parts or gaps): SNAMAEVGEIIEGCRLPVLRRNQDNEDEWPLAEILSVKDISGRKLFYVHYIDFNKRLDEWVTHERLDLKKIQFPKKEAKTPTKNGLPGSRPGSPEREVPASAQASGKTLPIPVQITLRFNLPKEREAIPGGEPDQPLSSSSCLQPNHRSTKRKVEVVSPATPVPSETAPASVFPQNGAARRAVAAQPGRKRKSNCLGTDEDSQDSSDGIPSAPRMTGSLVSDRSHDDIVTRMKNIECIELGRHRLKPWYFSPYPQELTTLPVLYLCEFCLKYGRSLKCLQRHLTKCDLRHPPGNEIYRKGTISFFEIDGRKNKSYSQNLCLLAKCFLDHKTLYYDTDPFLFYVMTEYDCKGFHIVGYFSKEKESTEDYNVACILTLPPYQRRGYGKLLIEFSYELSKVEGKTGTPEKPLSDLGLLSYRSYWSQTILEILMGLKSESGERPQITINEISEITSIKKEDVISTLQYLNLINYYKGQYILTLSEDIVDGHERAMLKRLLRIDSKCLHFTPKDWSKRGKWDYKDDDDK
T2 sequence (Q92794 with tags, fused parts or gaps): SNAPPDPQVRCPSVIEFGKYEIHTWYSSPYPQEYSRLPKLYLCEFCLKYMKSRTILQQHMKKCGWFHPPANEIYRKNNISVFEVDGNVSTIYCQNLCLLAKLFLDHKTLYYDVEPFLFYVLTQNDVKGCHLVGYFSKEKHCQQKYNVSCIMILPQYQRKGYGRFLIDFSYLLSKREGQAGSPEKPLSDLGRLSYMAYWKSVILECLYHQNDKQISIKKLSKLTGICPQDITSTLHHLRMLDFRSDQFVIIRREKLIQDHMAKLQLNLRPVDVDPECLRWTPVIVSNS

For the molecule `Cc1ccc(-c2ccccc2)c(C)c1C(=O)NNS(=O)(=O)c1ccccc1` [Compound I-200], the IC50 at KAT5 and at KAT6A was more than 100 µM in each case.
In the case of `O=C(NNS(=O)(=O)CC1CCCNC1)c1cc(-c2ccccc2)cc(Cl)c1F` (centres unmarked) [Compound I-410], the IC50 at KAT5 and at KAT6A was 10 to 50 µM throughout.
Turning to `O=C(NNS(=O)(=O)CC1CCCCC1)c1cc(-c2c[nH]cn2)ccc1F` [Compound I-495], the IC50 at KAT5 and against KAT6A was 10 to 50 µM in each case.
For the molecule `O=C(NNS(=O)(=O)CC1CCOCC1)c1cc(-c2cccc(F)c2)cc(Cl)c1F` [Compound I-397], the IC50 against KAT5 and at KAT6A was not above 10 µM each time.
Regarding `COCCN1CCC(C(C)S(=O)(=O)NNC(=O)c2cc(-c3ccccc3)cc(C)c2F)CC1` (centres unmarked) [Compound I-277], the 50% inhibitory concentration (IC50) against KAT5 and on KAT6A was 10 to 50 µM throughout.
On to `Cc1cc(-c2cccc(F)c2F)cc(C(=O)NNS(=O)(=O)C2CCCCC2)c1F` [Compound I-381], for which the IC50 (commonly the concentration that inhibits the measured activity by half) was not above 10 µM against KAT5 and 10 to 50 µM on KAT6A.
For `O=C(NNS(=O)(=O)C1CCCCC1)c1cc(-c2cc(Cl)cc(Cl)c2)cc(Cl)c1F` [Compound I-487], the IC50 against KAT5 and on KAT6A was 10 to 50 µM each time.
As to `Cc1cc(-c2cccc(C(=O)OCc3ccccc3)c2)cc(C(=O)NNS(=O)(=O)C2CCOCC2)c1F` [Compound I-443], the IC50 on KAT5 and against KAT6A was not above 10 µM in each case.
`Cn1cc2c(C(=O)NNS(=O)(=O)c3ccccc3)cc(-c3ccccc3)cc2n1` [Compound I-345]: the IC50 against KAT5 and against KAT6A was more than 100 µM in each case.
Take `Cc1cccc(-c2cc(Cl)c(F)c(C(=O)NNS(=O)(=O)CC3CCCN(C(=O)OC(C)(C)C)C3)c2)c1` (centres unmarked) [Compound I-513]: the IC50 was not above 10 µM against KAT5 and more than 100 µM at KAT6A.
For `Cc1cc(-c2cccc(F)c2)cc(C(=O)NNS(=O)(=O)c2ccccc2)c1F` [Compound I-371] the same measures were not above 10 µM and not above 10 µM.
For `O=C(NNS(=O)(=O)c1ccccc1)c1ccccc1Cl` [Compound I-149], the IC50 against KAT5 and against KAT6A was more than 100 µM each time.
With `O=C(NNS(=O)(=O)c1ccccc1)c1c[nH]c2ccccc12` [Compound I-158], the IC50 against KAT5 and on KAT6A was more than 100 µM throughout.
`Cc1cc(-c2ccccc2)cc(C(=O)NNS(=O)(=O)c2cccc(Cl)c2)c1F` [Compound I-187]: the IC50 on KAT5 and against KAT6A was not above 10 µM in each case.
On to `O=C(NNS(=O)(=O)CC1CCCCC1)c1cc(Cl)cc(Cl)c1F` [Compound I-411], for which the half-inhibitory concentration (IC50) on KAT5 was not above 10 µM; against KAT6A, 10 to 50 µM.
In the case of `CNC(=O)CCNC(=O)Cn1nc(C)c(F)c1C(=O)NNS(=O)(=O)C1CCCCC1` [Compound I-505], the IC50 at KAT5 and against KAT6A was more than 100 µM throughout.
On to `Cc1cc(-c2ccccc2)cc(C(=O)NNS(=O)(=O)CC2CCNCC2)c1F` [Compound I-141], for which the figures for the IC50 on KAT5 and against KAT6A were 50 to 100 µM and more than 100 µM, respectively.
`COc1ccc(CS(=O)(=O)NNC(=O)c2cc(-c3ccccc3)cc(C)c2F)cc1` [Compound I-81]: the figures for the IC50 against KAT5 and at KAT6A were 50 to 100 µM and 10 to 50 µM, respectively.
For `COc1ccccc1CN1CC(S(=O)(=O)NNC(=O)c2cc(-c3ccccc3)cc(C)c2F)C1` [Compound I-22, N′-(4-fluoro-5-methyl-[1,1′-biphenyl]-3-carbonyl)-1-(2-methoxybenzyl)azetidine-3-sulfonohydrazide] the same measures were 10 to 50 µM and 10 to 50 µM.
For `Cc1cc(-c2ccccc2)cc(C(=O)NNS(=O)(=O)C2CN(Cc3cccc(Cl)c3)C2)c1F` [Compound I-28] the same measures were more than 100 µM and more than 100 µM.
The corresponding values for `COCCNC(=O)c1cccc(-c2cc(C)c(F)c(C(=O)NNS(=O)(=O)CC3CCCCC3)c2)c1` [Compound I-447] are not above 10 µM and 10 to 50 µM.
On to `O=C(NNS(=O)(=O)c1cccc(Cl)c1)c1c(F)ccc(-c2cn[nH]c2)c1F` [Compound I-305], for which the values for the IC50 against KAT5 and on KAT6A were more than 100 µM and 10 to 50 µM, respectively.
For the molecule `O=S(=O)(NNc1n[nH]c2cccc(F)c12)c1ccccc1` [Compound I-45], the IC50 on KAT5 and at KAT6A was more than 100 µM throughout.
As for `O=C(NNS(=O)(=O)CC1CCOCC1)c1cc(CO)cc(Cl)c1F` [Compound I-466], the IC50 against KAT5 and on KAT6A was 10 to 50 µM throughout.
As to `Cc1cc(F)cc(-c2cc(Cl)c(F)c(C(=O)NNS(=O)(=O)C3CCCCC3)c2)c1` [Compound I-484], the IC50 against KAT5 and against KAT6A was 10 to 50 µM in each case.
On to `O=S(=O)(NNc1n[nH]c2c(-c3ccccc3)cccc12)c1ccccc1` [Compound I-50], for which the IC50 against KAT5 is 50 to 100 µM; on KAT6A, more than 100 µM.
For `Cc1cc(-c2ccccc2)cc(C(=O)NNS(=O)(=O)C2CN(CCc3ccccc3)C2)c1F` [Compound I-62] the same measures were more than 100 µM and 10 to 50 µM.
For `Cc1cc(-c2cccc(F)c2)cc(C(=O)NNS(=O)(=O)CC2CCCNC2)c1F` (centres unmarked) [Compound I-278] the same measures were 50 to 100 µM and more than 100 µM.
As for `O=S(=O)(Nc1ncc(-c2ccccc2F)[nH]1)c1ccccc1` [Compound I-65], the IC50 at KAT5 and against KAT6A was more than 100 µM each time.
As to `O=C(NNS(=O)(=O)C1CCCCC1)c1nc(-c2ccccc2)ccc1F` [Compound I-332], the IC50 on KAT5 and against KAT6A was more than 100 µM throughout.
In the case of `Nc1ncc(-c2ccc(-c3ccccc3)cc2F)n1S(=O)(=O)c1ccccc1` [Compound I-284], the IC50 against KAT5 and against KAT6A was more than 100 µM in each case.
With `Cc1cccc(-c2ncc(C(=O)Nc3ccccc3)[nH]2)c1F` [Compound I-450], the IC50 against KAT5 and at KAT6A was not above 10 µM in each case.
With `O=C(NNS(=O)(=O)C1CCOCC1)c1cc(CN2CCCCC2)cc(Cl)c1F` [Compound I-454], the values for the IC50 against KAT5 and at KAT6A were 50 to 100 µM and 10 to 50 µM, respectively.
For `Cc1c(-c2ccccc2)ccc(F)c1C(=O)NNS(=O)(=O)CC(Cc1ccccc1)C(C)C` (centres unmarked) [Compound I-268] the same measures were 10 to 50 µM and 10 to 50 µM.
Take `O=C(NNS(=O)(=O)c1ccccc1)c1cccc2ccccc12` [Compound I-180]: the IC50 on KAT5 and against KAT6A was more than 100 µM in each case.
Take `Cc1cccc(S(=O)(=O)NNC(=O)c2c(F)ccc(-c3ccccc3)c2F)c1` [Compound I-155]: the figures for the IC50 against KAT5 and against KAT6A were 10 to 50 µM and not above 10 µM, respectively.
The corresponding values for `COCCN1CC(S(=O)(=O)NNC(=O)c2cc(-c3ccccc3)cc(C)c2F)C1` [Compound I-43] are 50 to 100 µM and 10 to 50 µM.
The corresponding values for `COCC(=O)N1CCCC(CS(=O)(=O)NNC(=O)c2cc(-c3ccccc3)cc(C)c2F)C1` (centres unmarked) [Compound I-346] are not above 10 µM and not above 10 µM.
Take `COc1ccccc1C(=O)NNS(=O)(=O)c1ccccc1` [Compound I-145]: the IC50 on KAT5 and against KAT6A was more than 100 µM each time.
As for `Cc1cc(-c2ccccc2F)cc(C(=O)NNS(=O)(=O)C2CCCCC2)c1F` [Compound I-321], the IC50 was not above 10 µM against KAT5 and 10 to 50 µM on KAT6A.
As to `Cn1nc(NNS(=O)(=O)c2ccccc2)c2cc(-c3ccccc3)ccc21` [Compound I-47], the IC50 against KAT5 and against KAT6A was more than 100 µM throughout.
Regarding `Cc1cc(-c2ccccc2)cc(C(=O)NS(=O)(=O)N2CCCC2)c1F` [Compound I-151], the IC50 at KAT5 and on KAT6A was more than 100 µM each time.
Consider `O=C(NNS(=O)(=O)C1CCCCC1)c1cc(-c2ccccc2F)cc(Cl)c1F` [Compound I-390], for which the IC50 against KAT5 and against KAT6A was not above 10 µM in each case.
Consider `Cc1cc(-c2cccc(C(=O)OCc3ccccc3)c2)cc(C(=O)NNS(=O)(=O)CC2CCCCC2)c1F` [Compound I-446], for which the values for the IC50 against KAT5 and at KAT6A were 10 to 50 µM and 50 to 100 µM, respectively.
Take `CCc1cc(Cl)c(F)c(C(=O)NNS(=O)(=O)C2CCOCC2)c1` [Compound I-422]: the IC50 at KAT5 and against KAT6A was more than 100 µM each time.
In the case of `O=C(NNS(=O)(=O)C1CCCCC1)c1c(Cl)ccc(-c2ccccc2)c1Cl` [Compound I-275], the IC50 at KAT5 and on KAT6A was more than 100 µM throughout.
For the molecule `CNC(=O)Cn1cc(F)c(C(=O)NNS(=O)(=O)C2CCCCC2)n1` [Compound I-496], the IC50 against KAT5 and on KAT6A was more than 100 µM each time.
Regarding `CNC(=O)c1ccc(S(=O)(=O)NNC(=O)c2cc(-c3ccccc3)cc(C)c2F)cc1` [Compound I-244], the IC50 on KAT5 is 10 to 50 µM; at KAT6A, not above 10 µM.
On to `COc1cccc(-c2cc(C)c(F)c(C(=O)NNS(=O)(=O)c3ccccc3)c2)c1` [Compound I-350], for which the figures for the IC50 against KAT5 and against KAT6A were more than 100 µM and not above 10 µM, respectively.
In the case of `O=C(NNS(=O)(=O)C1CCCCC1)c1cc(-c2ccccc2)ccc1F` [Compound I-360], the IC50 at KAT5 and against KAT6A was 10 to 50 µM throughout.
As to `Cc1cc(-c2ccccc2)cc(C(=O)NNS(=O)(=O)CC2CCN(C(=O)OC(C)(C)C)CC2)c1F` [Compound I-224], the IC50 against KAT5 and on KAT6A was not above 10 µM each time.
On to `COc1cc(-c2ccccc2)cc(C(=O)NNS(=O)(=O)c2ccccc2)c1F` [Compound I-129], for which the IC50 against KAT5 was 10 to 50 µM; on KAT6A, not above 10 µM.
As to `Cc1cc(-c2ccccc2)cc(C(=O)NNS(=O)(=O)C2CC3CCC(C2)N3C(=O)OC(C)(C)C)c1F` (centres unmarked) [Compound I-137], the IC50 at KAT5 and on KAT6A was 10 to 50 µM in each case.
Turning to `Cc1cc(-c2ccccc2)cc(C(=O)NNS(=O)(=O)CC2CCCN(C(=O)CCN(C)C)C2)c1F` (centres unmarked) [Compound I-409], the IC50 against KAT5 and at KAT6A was 10 to 50 µM in each case.
Regarding `COc1cccc(CN2CCC(S(=O)(=O)NNC(=O)c3cc(-c4ccccc4)cc(C)c3F)C2)c1` (centres unmarked) [Compound I-26], the IC50 against KAT5 and at KAT6A was not above 10 µM in each case.
